Test results taken from ChEMBL document CHEMBL1133783, “Diastereoselective synthesis, activity and chiral stability of cyclic alkoxyketone inhibitors of cathepsin K” (Bioorg Med Chem Lett, 2001).

The compounds below were run against T1, Cathepsin K (Homo sapiens, UniProt P43235) (assay: Inhibitory activity was evaluated against cathepsin K).
T1 sequence (P43235 whole entry): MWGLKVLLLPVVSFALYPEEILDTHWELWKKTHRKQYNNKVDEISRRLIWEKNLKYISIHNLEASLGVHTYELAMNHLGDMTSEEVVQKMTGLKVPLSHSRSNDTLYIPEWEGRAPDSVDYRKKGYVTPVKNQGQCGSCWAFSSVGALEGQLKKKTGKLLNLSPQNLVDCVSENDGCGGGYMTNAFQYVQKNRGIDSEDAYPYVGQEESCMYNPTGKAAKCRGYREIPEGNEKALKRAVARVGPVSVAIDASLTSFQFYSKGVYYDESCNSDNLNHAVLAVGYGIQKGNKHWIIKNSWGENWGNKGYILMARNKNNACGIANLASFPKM

| Ki | SMILES |
| --- | --- |
| 770 nM | COc1ccc(CC(=O)N[C@@H](CC(C)C)C(=O)NC2CCOCC2=O)cc1OC (some centres not stated) |

Each compound was assayed against T1, Cathepsin K (assay: Inhibition of cathepsin K).

| SMILES | Ki |
| --- | --- |
| CC(C)C[C@@H](NC(=O)c1cc2ccccc2s1)C(=O)N[C@@H]1COCC1=O | 68 nM |
| CC(C)C[C@@H](NC(=O)c1ccc2ccccc2c1)C(=O)N[C@@H]1COCC1=O | 470 nM |
| CC(C)C[C@H](NC(=O)c1ccc2ccccc2c1)C(=O)NC1CCOCC1=O (single isomer, unassigned; diastereomer 2) | 380 nM |
| CC(C)C[C@@H](NC(=O)c1ccc2ccccc2n1)C(=O)N[C@@H]1COCC1=O | 590 nM |
| CC(C)C[C@H](NC(=O)c1cc2ccccc2s1)C(=O)NC1CCOCC1=O (single isomer, unassigned; diastereomer 2) | 70 nM |
| CC(C)C[C@H](NC(=O)c1ccc2ccccc2c1)C(=O)NC1CCOCC1=O (single isomer, unassigned; diastereomer 1) | 32 nM |

These reach a lower Ki. Values come first.

| Ki | SMILES |
| --- | --- |
| 14 nM | CC(C)C[C@H](NC(=O)c1ccc2ccccc2c1)C(=O)N[C@H]1COCC1=O |
| 8 nM | CC(C)C[C@H](NC(=O)c1cc2ccccc2s1)C(=O)NC1CCOCC1=O (single isomer, unassigned; diastereomer 1) |
| 7 nM | CC(C)C[C@H](NC(=O)c1cc2ccccc2s1)C(=O)N[C@H]1COCC1=O |
| 10 nM | COc1ccc(CC(=O)N[C@@H](CC(C)C)C(=O)NC2CCOCC2=O)cc1OC (some centres not stated) |
| 15 nM | CC(C)C[C@H](NC(=O)c1ccc2ccccc2n1)C(=O)N[C@H]1COCC1=O |
